Data set [1] is described as follows: Incubation with GSH at pH 7.4. The conditions noted are these: pH 7.4, within 4 h of incubation. In kind it is physicochemical.
The conditions of data set [2]: cited from earlier work.

On to `COc1ccc2c(c1)CCCN2C(=O)CCl` [Compound 11], for which the “corresponding GSH adduct produced” value in data set [1] was “more than 50%”.

What is called pKa is the negative logarithm of the acid dissociation constant. Take `N[C@@H](CCC(=O)N[C@@H](CS)C(=O)NCC(=O)O)C(=O)O` [GSH, glutathione]: the pKa in data set [2] is given as 9.17.
